Patent publication US20100099561A1, “HETEROBICYCLIC ALKYLTHIO-BRIDGED ISOXAZOLINES” (E.I. DU PONT DE NEMOURS AND COMPANY, priority 2008, published 2010)

What was measured:
Assay type in all cases: in vivo
[1] = test system: barnyardgrass (Echinochloa crus-galli); assay: Test A preemergence, barnyardgrass; settings: 0 to 100 scale (0 no effect, 100 complete control)
Source text: (§1) Seeds of barnyardgrass (Echinochloa crus-galli), large crabgrass (Digitaria sanguinalis), giant foxtail (Setaria faberi), morningglory (Ipomoea spp.), pigweed (Amaranthus retroflexus), velvetleaf (Abutilon theophrasti), wheat (Triticum aestivum), and corn (Zea mays) were planted into a blend of loam soil and sand and treated preemergence with a directed soil spray using test chemicals formulated in a non-phytotoxic solvent mixture which included a surfactant. At the same time these species were also treated with postemergence applications of test compounds formulated in the same manner. Plants ranged in height from two to ten cm and were in the one- to two-leaf stage for the postemergence treatment. Treated plants and untreated controls were maintained in a greenhouse for approximately ten days, after which time all treated plants were compared to untreated controls and visually evaluated for injury. Plant response ratings, summarized in Table A, are based on a 0 to 100 scale where 0 is no effect and 100 is complete control. A dash (-) response means no test result.

[2] = test system: large crabgrass (Digitaria sanguinalis); assay: Test A preemergence, large crabgrass; settings: 0 to 100 scale (0 no effect, 100 complete control)
Source text: as §1

[3] = test system: giant foxtail (Setaria faberi); assay: Test A preemergence, giant foxtail; settings: 0 to 100 scale (0 no effect, 100 complete control)
Source text: as §1

[4] = test system: morningglory (Ipomoea spp.); assay: Test A preemergence, morningglory; settings: 0 to 100 scale (0 no effect, 100 complete control)
Source text: as §1

[5] = test system: pigweed (Amaranthus retroflexus); assay: Test A preemergence, pigweed; settings: 0 to 100 scale (0 no effect, 100 complete control)
Source text: as §1

[6] = test system: velvetleaf (Abutilon theophrasti); assay: Test A preemergence, velvetleaf; settings: 0 to 100 scale (0 no effect, 100 complete control)
Source text: as §1

[7] = test system: wheat (Triticum aestivum); assay: Test A preemergence, wheat; settings: 0 to 100 scale (0 no effect, 100 complete control)
Source text: as §1

corn (Zea mays) [8] = assay: Test A preemergence, corn; settings: 0 to 100 scale (0 no effect, 100 complete control)
Source text: as §1

[9] = test system: barnyardgrass (Echinochloa crus-galli); assay: Test A postemergence, barnyardgrass; settings: 0 to 100 scale (0 no effect, 100 complete control)
Source text: as §1

[10] = test system: large crabgrass (Digitaria sanguinalis); assay: Test A postemergence, large crabgrass; settings: 0 to 100 scale (0 no effect, 100 complete control)
Source text: as §1

[11] = test system: giant foxtail (Setaria faberi); assay: Test A postemergence, giant foxtail; settings: 0 to 100 scale (0 no effect, 100 complete control)
Source text: as §1

[12] = test system: morningglory (Ipomoea spp.); assay: Test A postemergence, morningglory; settings: 0 to 100 scale (0 no effect, 100 complete control)
Source text: as §1

[13] = test system: pigweed (Amaranthus retroflexus); assay: Test A postemergence, pigweed; settings: 0 to 100 scale (0 no effect, 100 complete control)
Source text: as §1

[14] = test system: velvetleaf (Abutilon theophrasti); assay: Test A postemergence, velvetleaf; settings: 0 to 100 scale (0 no effect, 100 complete control)
Source text: as §1

[15] = test system: wheat (Triticum aestivum); assay: Test A postemergence, wheat; settings: 0 to 100 scale (0 no effect, 100 complete control)
Source text: as §1

corn (Zea mays) [16] = assay: Test A postemergence, corn; settings: 0 to 100 scale (0 no effect, 100 complete control)
Source text: as §1

rice (Oryza sativa) = assay: Test B flooded paddy test, rice; settings: Flood, scale 0 to 100
Source text: (§2) Plant species in the flooded paddy test consisted of rice (Oryza sativa), umbrella sedge (Cyperus difformis), ducksalad (Heteranthera limosa) and barnyardgrass (Echinochloa crus-galli) grown to the 2-leaf stage for testing. At time of treatment, test pots were flooded to 3 cm above the soil surface, treated by application of test compounds directly to the paddy water, and then maintained at that water depth for the duration of the test. Treated plants and controls were maintained in a greenhouse for 13 to 15 days, after which time all species were compared to controls and visually evaluated. Plant response ratings, summarized in Table B, are based on a scale of 0 to 100 where 0 is no effect and 100 is complete control. A dash (-) response means no test result.

[17] = test system: umbrella sedge (Cyperus difformis); assay: Test B flooded paddy test, umbrella sedge; settings: Flood, scale 0 to 100
Source text: as §2

[18] = test system: ducksalad (Heteranthera limosa); assay: Test B flooded paddy test, ducksalad; settings: Flood, scale 0 to 100
Source text: as §2

[19] = test system: barnyardgrass (Echinochloa crus-galli); assay: Test B flooded paddy test, barnyardgrass; settings: Flood
Source text: as §2

[20] = 250 g ai/ha, scale 0 to 100 (0 no effect, 100 complete control)

Structure (SMILES) | Plant response rating, Barnyardgrass ([1]; 125 g ai/ha) | Plant response rating, Barnyardgrass ([1]; 500 g ai/ha) | Plant response rating, Crabgrass, Large ([2]; 125 g ai/ha) | Plant response rating, Crabgrass, Large ([2]; 500 g ai/ha) | Plant response rating, Foxtail, Giant ([3]; 125 g ai/ha) | Plant response rating, Foxtail, Giant ([3]; 500 g ai/ha) | Plant response rating, Morningglory ([4]; 125 g ai/ha) | Plant response rating, Pigweed ([5]; 125 g ai/ha) | Plant response rating, Pigweed ([5]; 500 g ai/ha) | Plant response rating, Velvetleaf ([6]; 125 g ai/ha) | Plant response rating, Velvetleaf ([6]; 500 g ai/ha) | Plant response rating, Wheat ([7]; 125 g ai/ha) | Plant response rating, Wheat ([7]; 500 g ai/ha) | Plant response rating, Corn (corn (Zea mays) [8]; 125 g ai/ha) | Plant response rating, Corn (corn (Zea mays) [8]; 500 g ai/ha) | Plant response rating, Barnyardgrass ([9]; 125 g ai/ha) | Plant response rating, Barnyardgrass ([9]; 500 g ai/ha) | Plant response rating, Crabgrass, Large ([10]; 125 g ai/ha) | Plant response rating, Crabgrass, Large ([10]; 500 g ai/ha) | Plant response rating, Foxtail, Giant ([11]; 125 g ai/ha) | other results
Cc1cc2nc(C(F)(F)F)c(CS(=O)(=O)C3=NOC(C)(C)C3)c(=O)n2o1 [Compound 53] | 30 | 90 | 30 | 90 | 30 | 90 | 0 | 0 | 0 | 0 | 0 | 0 | 0 | 0 | 0 | 50 | 90 | 30 | 80 | 60 | Plant response rating, Foxtail, Giant ([11]; 500 g ai/ha): 80; Plant response rating, Morningglory ([12]; 125 g ai/ha): 0; Plant response rating, Morningglory ([12]; 500 g ai/ha): 10; Plant response rating, Pigweed ([13]; 125 g ai/ha): 0; Plant response rating, Pigweed ([13]; 500 g ai/ha): 0; Plant response rating, Velvetleaf ([14]; 125 g ai/ha): 0; Plant response rating, Velvetleaf ([14]; 500 g ai/ha): 0; Plant response rating, Wheat ([15]; 125 g ai/ha): 0; Plant response rating, Wheat ([15]; 500 g ai/ha): 20; Plant response rating, Corn (corn (Zea mays) [16]; 125 g ai/ha): 0; Plant response rating, Corn (corn (Zea mays) [16]; 500 g ai/ha): 0; Plant response rating, Rice (rice (Oryza sativa); 62 g ai/ha): 0; Plant response rating, Rice (rice (Oryza sativa); 250 g ai/ha): 0; Plant response rating, Sedge, Umbrella ([17]; 62 g ai/ha): 0; Plant response rating, Sedge, Umbrella ([17]; 250 g ai/ha): 0; Plant response rating, Ducksalad ([18]; 62 g ai/ha): 0; Plant response rating, Ducksalad ([18]; 250 g ai/ha): 0; Plant response rating, Barnyardgrass ([19]; 62 g ai/ha, scale 0 to 100): 0; Plant response rating, Barnyardgrass [19, 20]: 0
CC1(C)CC(S(=O)(=O)Cc2c(C(F)(F)F)nc3cnccn3c2=O)=NO1 [Compound 52] | 20 | 80 | 20 | 80 | 40 | 90 | 0 | 0 | 0 | 0 | 0 | 0 | 0 | 0 | 0 | 30 | 90 | 20 | 50 | 60 | Plant response rating, Morningglory ([4]; 500 g ai/ha): 0; Plant response rating, Foxtail, Giant ([11]; 500 g ai/ha): 80; Plant response rating, Morningglory ([12]; 125 g ai/ha): 0; Plant response rating, Morningglory ([12]; 500 g ai/ha): 30; Plant response rating, Pigweed ([13]; 125 g ai/ha): 0; Plant response rating, Pigweed ([13]; 500 g ai/ha): 0; Plant response rating, Velvetleaf ([14]; 125 g ai/ha): 0; Plant response rating, Velvetleaf ([14]; 500 g ai/ha): 0; Plant response rating, Wheat ([15]; 125 g ai/ha): 0; Plant response rating, Wheat ([15]; 500 g ai/ha): 30; Plant response rating, Corn (corn (Zea mays) [16]; 125 g ai/ha): 0; Plant response rating, Corn (corn (Zea mays) [16]; 500 g ai/ha): 0; Plant response rating, Rice (rice (Oryza sativa); 62 g ai/ha): 0; Plant response rating, Rice (rice (Oryza sativa); 250 g ai/ha): 0; Plant response rating, Sedge, Umbrella ([17]; 62 g ai/ha): 0; Plant response rating, Sedge, Umbrella ([17]; 250 g ai/ha): 0; Plant response rating, Ducksalad ([18]; 62 g ai/ha): 0; Plant response rating, Ducksalad ([18]; 250 g ai/ha): 0; Plant response rating, Barnyardgrass ([19]; 62 g ai/ha, scale 0 to 100): 0; Plant response rating, Barnyardgrass [19, 20]: 0
